From patent US20210400977A1, “META-DIAMIDE COMPOUNDS FOR CONTROLLING INVERTEBRATE PESTS” (FMC Corporation, priority 2018, published 2021)

How the values were obtained:
[1] = test system: corn planthopper (Peregrinus maidis (Ashmead)); test: Test C: control of corn planthopper through contact and/or systemic means; type: in vivo; details: 144 h, sprayed at 250 ppm, assessed after 6 days
Experimental: (§1) Test compounds were formulated using a solution containing 10% acetone, 90% water and 300 ppm Activator 90® non-ionic surfactant (Loveland Products, Loveland, Colo., USA). The formulated compounds were applied in 1 mL of liquid through an atomizer nozzle positioned 1.27 cm (0.5 inches) above the top of each test unit. Test compounds were sprayed at the rates indicated, and each test was replicated three times.
For evaluating control of corn planthopper (Peregrinus maidis (Ashmead)) through contact and/or systemic means, the test unit consisted of a small open container with a 3-4-day-old corn (maize) plant inside. White sand was added to the top of the soil prior to application of the test compound.
Test compounds were formulated and sprayed at 250 and/or 50 ppm. After spraying of the formulated test compound, the test units were allowed to dry for 1 h before they were post-infested with ˜15-20 nymphs (18-to-21-day-old). A black, screened cap was placed on the top of each test unit, and the test units were held for 6 days in a growth chamber at 22-24° C. and 50-70% relative humidity. Each test unit was then visually assessed for insect mortality.

[2] = test system: sweetpotato whitefly (Bemisia tabaci (Gennadius)); test: Test G: control of sweetpotato whitefly through contact and/or systemic means; type: in vivo; details: 312 h, assessed after 13 days
Experimental: as §1
For evaluating control of the sweetpotato whitefly (Bemisia tabaci (Gennadius)) through contact and/or systemic means, the test unit consisted of a small open container with a 12-14-day-old cotton plant or 7-9-day-old soybean plant inside. Prior to the spray application, both cotyledons were removed from the plant, leaving one true leaf for the assay. Adult whiteflies were allowed to lay eggs on the plant and then were removed from the test unit. Cotton or soybean plants infested with at least 15 eggs were submitted to the test for spraying.
Test compounds were formulated and sprayed at 250 and/or 50 ppm. After spraying, the test units were allowed to dry for 1 hour. The cylinders were then removed, and the units were taken to a growth chamber and held for 13 days at 28° C. and 50-70% relative humidity. Each test unit was then visually assessed for insect mortality.

CCC(=O)NCc1cc(NC(=O)C2C(c3cc(Cl)cc(Cl)c3)C2(Cl)Cl)ccc1F (stereo not shown) [Compound 153]
mortality at 250 ppm [1]: ≥ 80%
mortality at 50 ppm ([2]; sprayed at 50 ppm): ≥ 70%
mortality at 250 ppm ([2]; sprayed at 250 ppm): ≥ 70%

CC(=O)NCc1nc(NC(=O)C2C(c3ccc(F)c(Cl)c3)C2(Cl)Cl)ccc1Br (stereo not shown) [Compound 247]
melting point: 170 to 173 °C

CN(Cc1cc(NC(=O)C2C(c3cc(Cl)cc(Cl)c3)C2(F)F)ccc1Cl)C(=O)C1CC1 (stereo not shown) [Compound 32]
melting point: 151 to 155 °C

O=C(CC(F)(F)F)NCc1nc(NC(=O)C2C(c3ccc(F)c(Cl)c3)C2(Cl)Cl)ccc1Br (stereo not shown) [Compound 256]
melting point: 184 to 187 °C

CC(C)C(=O)NCc1ccc(Cl)c(NC(=O)C2C(c3cc(Cl)cc(Cl)c3)C2(Cl)Cl)c1 (stereo not shown) [Compound 136]
melting point: 187 to 191 °C
